Source: US5955508A, “Method for the enhancement of lymphocyte activity against opportunistic microbial pathogens” (priority 1996, dated 1999)

Experiments:
[1] = test system: human percoll-fractionated peripheral blood lymphocytes mediated NK activity; details: in vitro, cited from earlier work
fungal infections = details: AIDS patients; cited from earlier work
[2] = mouse; cited from earlier work
K562 human tumor cells = test: Natural killer cell cytotoxicity of human PBMC against K562 tumor cells in vitro; format: cell-based
Protocol: Prior to conducting the above experiment, we examined the dose dependent effects of d-FEN on the ability of human PBMC obtained from five healthy volunteers (person Caucasians) to kill human K562 tumor cells in vitro. The potential cytotoxic enhancing effects of d-FEN and d-norFEN were compared using PBMC from two of the five human donors.
For assessment of immunological parameters of human PBMC, venous blood as aseptically drawn into sterile 10 ml tubes containing 20 U/ml preservative free heparin, diluted with an equal volume of Hank's Balanced Salt Solution (HBSS), layered over Lymphocyte Separation Medium (LSM, Bionetics, Kensington, Md.) and centrifuged at 1,000 ×g for 30 min. After centrifugation, the mononuclear cell layer was recovered from the interface and washed twice in HBSS and enumerated.
The K562 cell line originated from a chronic myelogenous leukemia patient and was obtained from Dr. T. Ellis (Director, Cellular Immunology Laboratory, LUMC). The K562 cells used for assessment of cytotoxic activity were maintained in long term cultures using Corning 25 cm^2 tissue culture flasks (Corning Glass Works, Corning, N.Y.) containing RPMI 1640 (Gibco Laboratories, Grand Island, N.Y.) supplemented with low LPS 10% fetal bovine serum (FBS; Gibco), 100 units/ml penicillin, 100 μg/ml streptomycin (Whittaker M. A. Bioproducts, Walkersville, Md.), 0.1 mM non-essential amino acids, and 2 mM L-glutamine (Gibco). This medium was used throughout, except where noted, and is referred to as "culture medium". The K562 cells were grown in suspension and were passaged three times per week by transfer of 10^6 K562 cells into a flask containing 10 ml of fresh culture medium. The K562 cells injected into the SCID mice were supplemented with fresh medium at a 1:3 dilution the day before administration. They were washed once in medium, pelleted by centrifugation at 500 ×g for 10 min., then resuspended at a concentration of 5×10^7. Subsequently, 0.2 ml (1×10^7 cells) of the cell suspension was injected (i.p.) into each SCID mouse. The K562 cells were administered to the animals four days after the injection of PBMC.
The K562 tumor cell lines maintained in vitro were washed once in culture medium, pelleted by centrifugation at 500×g for 10 min and resuspended in approximately 0.1 ml of culture medium. Subsequently, 100 μCi of [^51 Cr] (New England Nuclear, Boston, Mass.) was added to 1×10^5 cells in a final volume of 0.2 ml. The cells were incubated at 37° C. with 5% CO2 for 1 h with agitation every 10 min, then washed 3 times in HBSS, resuspended to 5×10^4 cells/ml in culture medium and 0.1 ml (5×10^3) aliquoted to each well of a 96 well round bottom assay plate (Corning Glass Works, Corning, N.Y.). Radiolabelled K562 was cultured for 4 h with lymphocytes at effector to target ratios ranging from 50:1 to 6:1. Following 4 h of culture the media was removed using a Skatron harvesting press (Skatron Inc., Sterling, Va.) and associated radioactivity determined. Maximum release was obtained by adding 0.05% Nonidet P-40 (Sigma Chemical Co., St. Louis, Mo.).
The results have been expressed as % cytotoxicity and calculated by the formula: % cytotoxicity=[(experimental DPM-minimum DPM)/(maximum DPM-minimum DPM)]×100.
All experimental means were calculated from triplicate values. Lytic units (LU) were calculated using a computer program written by David Coggins, FCRC, Frederick, Md.

[3] = Plasma d-FEN and d-norFEN levels and half-life in mice; format: in vivo; details: mouse; d-FEN p.o. in drinking water; sacrificed 11:00-13:00 h
Protocol: Mice like rats are prandial drinkers during the dark period of the light-dark cycle. The animals were sacrificed between 11:00 and 13:00 h, 4-6 h after the end of the dark period.

T-cell counts = details: AIDS patients; fenfluramine with phentermine; cited from earlier work

Structure (SMILES): NCCc1c[nH]c2ccc(O)cc12 [5-HT]
- effect on NK activity in words ([1]; 5-HT dose dependent): stimulatory effects
- duration of NK stimulation [1]: 16 h

Structure (SMILES): C[C@@H]1[C@H](O)[C@@H](C)/C=C/C=C/C=C/C=C/C=C/C=C/C=C/[C@H](O[C@@H]2O[C@H](C)[C@@H](O)[C@H](N)[C@@H]2O)C[C@@H]2O[C@](O)(C[C@@H](O)C[C@@H](O)[C@H](O)CC[C@@H](O)C[C@@H](O)CC(=O)O[C@H]1C)C[C@H](O)[C@H]2C(=O)O [amphotericin B]
- effect on fungal infections in words (fungal infections): can suppress fungal infections, but for the first time appear to have no curative effect in AIDS patients

Structure (SMILES): C[C@H](N)Cc1cccc(C(F)(F)F)c1 [d-norFEN]
- t1/2 [2]: 6 h
- percent increase in cytotoxicity (K562 human tumor cells; 0.25 ng/ml, DONOR #1): 29%
- percent increase in cytotoxicity (K562 human tumor cells; 0.25 ng/ml, DONOR #2): 19%
- percent increase in cytotoxicity (K562 human tumor cells; 0.50 ng/ml, DONOR #1): 24%
- percent increase in cytotoxicity (K562 human tumor cells; 0.50 ng/ml, DONOR #2): 28%
- percent increase in cytotoxicity (K562 human tumor cells; 1.00 ng/ml, DONOR #1): 11%
- percent increase in cytotoxicity (K562 human tumor cells; 1.00 ng/ml, DONOR #2): 13%
- d-FEN vs d-norFEN effect on cytotoxicity in words (K562 human tumor cells; PBMC of two donors): virtually identical effects
- effect on capacity of human NK cells to kill K562, in words (K562 human tumor cells; conclusion): augments the capacity of human NK cells to kill the human tumor cell line, K562
- plasma d-FEN and d-norFEN levels at sacrifice [3]: Neither d-FEN nor d-norFEN was detected

Structure (SMILES): CCNC(C)Cc1cccc(C(F)(F)F)c1 (racemic) [fenfluramine]
- T-cell counts in words (T-cell counts): significant improvement of their T-cell counts
